Assay results: patent publication US20230138393A1, “LINKING AMINO ACID SEQUENCES, MANUFACTURING METHOD THEREOF, AND USE THEREOF” (priority 2020, published 2023)
“Also recorded” adds a separate entry of the source. Blank lines part the entries; values can stand above or below the molecule they belong to. [ ]: non-standard residue; d: D form. The star is where a group is joined. FITC = O=C1OC2(c3ccc(O)cc3Oc3cc(O)ccc32)c2ccc(NC(=S)*)cc21; Dap = NC[C@H](N)C(=O)O

How the values were obtained:
MYST2 = MYST2 (Homo sapiens, UniProt O95251); assay: Acetyltransferase assay with acetyl-CoA analogs and H4 (1-20) peptide (MS); conditions: MYST2 with H4 (1-20) peptide, mass spectrometric analysis
TIP60 = TIP60 (Homo sapiens, UniProt Q92993); assay: as above; conditions: TIP60 with H4 (1-20) peptide, mass spectrometric analysis
GCN5 = GCN5 (Homo sapiens, UniProt Q92831); assay: Acetyltransferase assay with acetyl-CoA analogs and H3 (1-20) peptide (MS); conditions: GCN5 with H3 (1-20) peptide, mass spectrometric analysis
[1] = Hydrolysis of acetyl CoA and fluoroacetyl CoA (DTNB); format: physicochemical; conditions: 10 μM, 100 mM Tris buffer (pH 7.2)
Description: Hydrolysis of Acetyl CoA and Fluoroacetyl CoA: The hydrolysis rate of acetyl-CoA and fluoroacetyl CoA were measured in a similar manner to reported procedures (Weeks A M et al., 2010, Biochemistry, 49:9269-9279; Wagner G R et al., 2017, Cell Metab., 25:823-837). Briefly, 10 μM of the acetyl or fluoroacetyl CoA was incubated in 100 mM Tris buffer mixed with 0.5 mM DTNB, pH 7.2. The increase in the solution's absorbance at 412 nm was recorded, as a result of the reaction between DTNB and the free thiol in the released CoA hydrolysis product. A CoA standard curve was generated by measuring the absorbance of serially diluted CoA stock (200 μM) in the same assay buffer.

[2] = Stability and reactivity of model substrates and probes in cell lysates; conditions: human, pH 8.5
[3] = Bioorthogonality of the fluorine-thiol displacement reaction: incubation with glutathione or cysteine (1H NMR); format: physicochemical; conditions: 25 mM each, pH 8.5, 37° C., 24 h
Description: Bioorthogonality of the Fluorine-Thiol Displacement Reaction (FIG. 30) The common substrate 2-fluoro-N-phenethylacetamide (compound (3)) was dissolved in MeOD as a 10× stock solution (250 mM). Sixty microliter of the stock was mixed with another 60 μL of either the reduced glutathione or cysteine 10× stock solution (250 mM in D2O). The mixture was added with additional deuterated solvents (1:1 mix of deuterated sodium phosphate buffer and MeOD) to make a final volume of 600 μL (pH adjusted to 8.5). The resulting solution was incubated at 37° C. water bath for 24 h, and then analyzed by ^1H NMR spectroscopy.

[4] = Measurement of FTDR reaction kinetics; format: physicochemical; conditions: DMF/Tris buffer (70/30), pH 8.5, 37° C.; 40, 80, 160 mM; average of three experiments
Description: Measurement of Reaction Kinetics: Reaction kinetics were evaluated similarly to reported procedures (Addy P S et al., 2017, J. Am. Chem. Soc., 139:11670-11673; Sundhoro M et al., 2017, Angew. Chem. Int. Ed. Engl., 56:12117-12121.). Stock solutions of substrate (3) and nucleophiles were prepared in DMF, while TCEP stock (pH 7.4) was dissolved in H2O. Equal concentrations (40 mM, 80 mM, or 160 mM) of the substrate and the nucleophile (3,4,5-trimethoxybenzenethiol or 2,4,6-trimethoxybenzenethiol) were mixed in 40 μL of DMF/Tris buffer (70/30). Over excess amount of TCEP (100 mM, 200 mM, or 400 mM) was added, and the final pH of the mixture was adjusted to 8.5 to initiate the reaction at 37° C. Time dependent measurements were carried out by taking 2 μL of the reaction mixture at indicated time points (30 min, 60 min, 90 min, 120 min, 150 min, 180 min), and mixing it with 18 μL 0.5% TFA/ACN to quench the reaction. The samples were eventually analyzed by LC/MS and the concentrations of product and reactant were determined by comparing peak area ratios with those of the standard curves. […]; t: reaction time; [X]t: concentration of either reactant at time t).

in vitro = conditions: human, pH 8.5
DLD-1 cells [5] = conditions: 10 μM, 12 h
DLD-1 cells [6] = assay: Cell penetration assay of FITC-labelled Axin analogues (confocal imaging); format: cell-based; conditions: for cellular uptake by confocal fluorescence microscopy (in words): 10 μM; for Mean Intensity Ratio (cell penetration): 10 μM FITC-labelled peptide, 12 h, intracellular intensity of peptide 51 normalized as 1
DLD-1 cells [7] = conditions: then 10 μM peptide 4 h; for Mean Intensity Ratio, no pathway blocker: DLD-1 cells pretreated with solvent vehicle only, normalized as 1; for Mean Intensity Ratio, Chlorpromazine / Mean Intensity Ratio, Cytochalasin D / Mean Intensity Ratio, Nystatin / Mean Intensity Ratio, NaClO3: DLD-1 cells, ratio to no blocker; for Mean Intensity Ratio, Chlorpromazine: 1 h 5 μg/mL chlorpromazine (clathrin-dependent endocytosis); for Mean Intensity Ratio, Cytochalasin D: 1 h 10 μg/mL cytochalasin D (actin polymerization); for Mean Intensity Ratio, Nystatin: 1 h 25 μg/mL nystatin (caveolin-mediated endocytosis); for Mean Intensity Ratio, NaClO3: 1 h 80 mM NaClO3 (proteoglycan synthesis)
Description: Images were analyzed with NIH ImageJ software. […] Particles in the extracellular matrix that the “analyze particle” function selected were manually deselected and removed from the data set (FIG. 58B).
After this, the FITC-labelled peptide analogues were added at a final concentration of 10 μM, and the mixture was incubated at 37° C./5% CO2 for 4 h. […] After another round of washing, cells were imaged in the buffer as aforementioned. Subsequent CellTiter-Glo viability measurements were also performed right after confocal imaging.

[8] = biological target: T1, beta-catenin protein (Abcam, ab63175) (UniProt P35222 1-781, limits assumed); assay: ELISA; beta-catenin coated on plate
T1 construct: Bought protein coated on the ELISA plate; also called β-catenin; target protein β-catenin
T1 sequence (looked up): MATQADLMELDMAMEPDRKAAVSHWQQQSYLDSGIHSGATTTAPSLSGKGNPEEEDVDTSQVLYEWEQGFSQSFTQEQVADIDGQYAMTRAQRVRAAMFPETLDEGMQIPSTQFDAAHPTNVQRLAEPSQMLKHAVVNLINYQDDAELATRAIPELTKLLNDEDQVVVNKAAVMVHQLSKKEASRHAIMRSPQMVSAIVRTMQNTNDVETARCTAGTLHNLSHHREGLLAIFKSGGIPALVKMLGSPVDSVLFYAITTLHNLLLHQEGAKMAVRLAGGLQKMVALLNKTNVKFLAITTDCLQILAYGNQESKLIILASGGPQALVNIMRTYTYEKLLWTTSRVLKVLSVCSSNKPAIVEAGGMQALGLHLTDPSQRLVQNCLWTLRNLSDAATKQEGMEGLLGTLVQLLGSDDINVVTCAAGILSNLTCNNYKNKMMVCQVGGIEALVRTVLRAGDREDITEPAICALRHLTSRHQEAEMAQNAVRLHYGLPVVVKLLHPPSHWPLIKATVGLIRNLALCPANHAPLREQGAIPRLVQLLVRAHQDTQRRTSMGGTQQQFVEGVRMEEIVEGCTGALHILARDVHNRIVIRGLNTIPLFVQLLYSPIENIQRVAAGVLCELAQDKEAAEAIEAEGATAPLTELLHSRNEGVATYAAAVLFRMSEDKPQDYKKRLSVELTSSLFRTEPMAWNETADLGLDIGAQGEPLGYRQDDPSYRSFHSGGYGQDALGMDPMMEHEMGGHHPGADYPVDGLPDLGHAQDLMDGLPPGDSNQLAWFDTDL

Sequence of TIP60 (Q92993 whole entry): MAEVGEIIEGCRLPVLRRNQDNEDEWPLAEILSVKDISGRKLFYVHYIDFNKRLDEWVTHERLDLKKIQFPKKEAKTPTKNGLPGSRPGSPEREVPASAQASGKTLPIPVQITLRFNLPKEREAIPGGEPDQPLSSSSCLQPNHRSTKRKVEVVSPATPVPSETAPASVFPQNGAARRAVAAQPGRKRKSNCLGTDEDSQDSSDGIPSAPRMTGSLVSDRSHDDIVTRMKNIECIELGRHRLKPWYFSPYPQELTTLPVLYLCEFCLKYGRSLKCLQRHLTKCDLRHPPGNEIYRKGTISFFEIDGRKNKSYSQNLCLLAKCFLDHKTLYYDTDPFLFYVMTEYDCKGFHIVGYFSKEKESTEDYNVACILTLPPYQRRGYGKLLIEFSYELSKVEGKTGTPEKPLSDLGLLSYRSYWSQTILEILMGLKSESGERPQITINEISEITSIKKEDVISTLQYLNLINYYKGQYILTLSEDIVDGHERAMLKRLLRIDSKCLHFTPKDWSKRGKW
Sequence of MYST2 (O95251 whole entry): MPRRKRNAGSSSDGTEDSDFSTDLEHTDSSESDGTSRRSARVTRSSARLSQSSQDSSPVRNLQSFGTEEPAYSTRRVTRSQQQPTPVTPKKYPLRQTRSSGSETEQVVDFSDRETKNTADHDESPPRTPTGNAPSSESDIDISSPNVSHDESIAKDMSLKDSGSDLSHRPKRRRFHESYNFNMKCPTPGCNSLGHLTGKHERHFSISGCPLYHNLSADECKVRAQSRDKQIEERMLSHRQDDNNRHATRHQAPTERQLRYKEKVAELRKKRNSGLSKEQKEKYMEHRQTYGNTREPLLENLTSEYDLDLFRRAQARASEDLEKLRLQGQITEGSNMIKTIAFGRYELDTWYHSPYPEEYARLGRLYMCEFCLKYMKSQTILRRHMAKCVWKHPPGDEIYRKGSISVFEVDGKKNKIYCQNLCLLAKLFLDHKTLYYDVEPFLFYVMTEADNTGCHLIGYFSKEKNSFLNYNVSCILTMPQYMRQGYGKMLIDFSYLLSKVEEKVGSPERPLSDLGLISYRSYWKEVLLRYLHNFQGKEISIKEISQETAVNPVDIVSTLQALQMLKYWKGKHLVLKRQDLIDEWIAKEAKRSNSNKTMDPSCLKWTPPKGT
Sequence of GCN5 (Q92831 492-658 limits assumed): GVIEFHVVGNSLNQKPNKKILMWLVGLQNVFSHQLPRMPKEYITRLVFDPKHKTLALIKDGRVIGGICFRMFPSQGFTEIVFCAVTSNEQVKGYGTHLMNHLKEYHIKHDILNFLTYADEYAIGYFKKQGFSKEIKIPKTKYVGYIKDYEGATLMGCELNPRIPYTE

Molecule: CC(=O)SCCNC(=O)CCNC(=O)[C@H](O)C(C)(C)COP(=O)(O)OP(=O)(O)OC[C@H]1O[C@@H](n2cnc3c(N)ncnc32)[C@H](O)[C@@H]1OP(=O)(O)O [Ac-CoA, acetyl-CoA]
- labelling of histone peptide substrate by acetyltransferase (MYST2): successful acetyl or acetyl analog labelling
- labelling of histone peptide substrate by acetyltransferase (TIP60): successful acetyl or acetyl analog labelling
- labelling of histone peptide substrate by acetyltransferase (GCN5): successful acetyl or acetyl analog labelling
- pseudo-first-order rate constant of hydrolysis [1]: 0.0002 s⁻¹

Molecule: CC(C)(COP(=O)(O)OP(=O)(O)OCC1OC(n2cnc3c(N)ncnc32)C(O)C1OP(=O)(O)O)[C@@H](O)C(=O)NCCC(=O)NCCSC(=O)CF (stereo partly shown) [F-Ac-CoA, fluoroacetyl-CoA]
- labelling of histone peptide substrate by acetyltransferase (MYST2): successful acetyl or acetyl analog labelling
- labelling of histone peptide substrate by acetyltransferase (TIP60): successful acetyl or acetyl analog labelling
- labelling of histone peptide substrate by acetyltransferase (GCN5): successful acetyl or acetyl analog labelling
- pseudo-first-order rate constant of hydrolysis [1]: 0.0075 s⁻¹

Molecule: O=C(CF)NCCc1ccccc1 [Peptide 3]
- recovery at 14 h, 1 mM [2]: 100%
- reactivity with cysteine [3]: no reaction was observed; also recorded: stable
- reactivity with glutathione [3]: no reaction was observed; also recorded: stable

- labelling of histone peptide substrate by acetyltransferase (MYST2): failed to incorporate
- labelling of histone peptide substrate by acetyltransferase (TIP60): failed to incorporate
- labelling of histone peptide substrate by acetyltransferase (GCN5): failed to incorporate
Molecule: C#CCCC(=O)SCCNC(=O)CCNC(=O)[C@H](O)C(C)(C)COP(=O)(O)OP(=O)(O)OCC1OC(n2cnc3c(N)ncnc32)C(O)C1OP(=O)(O)O (stereo partly shown) [Peptide 4-PY-CoA, 4-pentynoyl CoA]

Molecule: COc1cc(S)cc(OC)c1OC [Peptide 12]
- second order rate constant of FTDR reaction with (3) (2-fluoro-N-phenethylacetamide) [4]: (0.37±0.06)×10^−3 M^−1 S^−1

- recovery at 14 h, 1 mM (in vitro): 61.8%
Molecule: COc1cc(OC)c(S)c(OC)c1 [Peptide 13]
- second order rate constant of FTDR reaction with (3) (2-fluoro-N-phenethylacetamide) [4]: (1.03±0.06)×10^−3 M^−1 S^−1

Molecule: CC[C@H](C)[C@@H]1NC(=O)[C@@H](NC(=O)[C@H](CCC(N)=O)NC(=O)[C@@H]2CCCN2C(=O)[C@H](Cc2c[nH]c3ccccc23)NC(=O)[C@H](CCCNC(=N)N)NC(=O)COCCOCCNC(=S)Nc2ccc3c(c2)C(=O)OC32c3ccc(O)cc3Oc3cc(O)ccc32)CNC(=O)CSCc2cccc(c2)CSCC(=O)NC[C@@H](C(=O)N[C@@H](Cc2c[nH]cn2)C(=O)N[C@H](C(=O)N[C@@H](CCCNC(=N)N)C(=O)N[C@@H](CCCNC(=N)N)C(=O)N[C@H](C(=O)N[C@@H](Cc2c[nH]c3ccccc23)C(=O)N[C@@H](CCCNC(=N)N)C(N)=O)C(C)C)C(C)C)NC(=O)[C@H](CC(=O)O)NC(=O)[C@H](CC(C)C)NC1=O [Peptide 48]
- effect on cell viability (DLD-1 cells [5]): did not affect the viability
- cellular uptake by confocal fluorescence microscopy (in words) (DLD-1 cells [6]): significant cellular uptake
- Mean Intensity Ratio (cell penetration) (DLD-1 cells [6]): 4.86±0.15
- Mean Intensity Ratio, no pathway blocker (DLD-1 cells [7]): 1.00 ± 0.04
- Mean Intensity Ratio, Chlorpromazine (DLD-1 cells [7]): 0.13 ± 0.01
- Mean Intensity Ratio, Cytochalasin D (DLD-1 cells [7]): 0.10 ± 0.01
- Mean Intensity Ratio, Nystatin (DLD-1 cells [7]): 1.16 ± 0.03
- Mean Intensity Ratio, NaClO3 (DLD-1 cells [7]): 0.12 ± 0.01

Molecule: CC[C@H](C)[C@@H]1NC(=O)[C@@H](NC(=O)[C@H](CCC(N)=O)NC(=O)[C@@H]2CCCN2C(=O)[C@H](Cc2c[nH]c3ccccc23)NC(=O)[C@H](CCCNC(=N)N)NC(=O)COCCOCCNC(=S)Nc2ccc3c(c2)C(=O)OC32c3ccc(O)cc3Oc3cc(O)ccc32)CNC(=O)CSCc2cccc(c2)CSCC(=O)NC[C@H](C(=O)N[C@@H](Cc2c[nH]cn2)C(=O)N[C@H](C(=O)N[C@@H](CCCNC(=N)N)C(=O)N[C@@H](CCCNC(=N)N)C(=O)N[C@H](C(=O)N[C@@H](Cc2c[nH]c3ccccc23)C(=O)N[C@@H](CCCNC(=N)N)C(N)=O)C(C)C)C(C)C)NC(=O)[C@H](CC(=O)O)NC(=O)[C@H](CC(C)C)NC1=O [Peptide 50]
- effect on cell viability (DLD-1 cells [5]): did not affect the viability
- cellular uptake by confocal fluorescence microscopy (in words) (DLD-1 cells [6]): significant cellular uptake
- Mean Intensity Ratio (cell penetration) (DLD-1 cells [6]): 5.05±0.14
- Mean Intensity Ratio, no pathway blocker (DLD-1 cells [7]): 1.00 ± 0.02
- Mean Intensity Ratio, Chlorpromazine (DLD-1 cells [7]): 0.16 ± 0.01
- Mean Intensity Ratio, Cytochalasin D (DLD-1 cells [7]): 0.99 ± 0.02
- Mean Intensity Ratio, Nystatin (DLD-1 cells [7]): 0.17 ± 0.01
- Mean Intensity Ratio, NaClO3 (DLD-1 cells [7]): 0.20 ± 0.01

- EC50 [8]: ~300 nM
B1: FITC labelled fluoroacetamide containing L,L substrate (47), unstapled Axin-derived peptide analogue (peptide)
peptide: {FITC}-RWPQ[Dap](fluoroacetyl)ILD[Dap](fluoroacetyl)HVRRVWR-NH2
notes: also called peptide (47); unstapled peptide (47)
